Assay results from patent EP0908457B1, “3-(1,2-benzisothiazol- and isoxazol-5-Y1)-2,4(1H,3H)-pyrimidinedione or thione and 3-(1,2-benzisothiazol- and isoxazol-5-y1)-4(3H)-pyrimidinone or thione herbicidal agents” (BASF AKTIENGESELLSCHAFT, priority 1997, dated 1999).

Legend:
[1] = system: Cyperus serotinus, Rottb.; assay: Preemergence weed control under flooded paddy conditions, CYPSE (Flatsedge); assay type: in vivo; conditions: preemergence, rated 3-4 weeks after treatment
[2] = system: Oryza sativa, (L.) Tebonnet; assay: Rice tolerance to post-transplant applications under flooded paddy conditions (Example 187), ORYSAT (Rice, Tebonnet); conditions: rated 3-4 weeks after treatment
[3] = system: Cyperus iria; assay: Preemergence weed control under flooded paddy conditions, CYPIR (Rice Flatsedge); assay type: in vivo; conditions: preemergence, flooded paddy, rated 3-4 weeks after treatment
[4] = system: Sagittaria pygmaea, L.; assay: Preemergence weed control under flooded paddy conditions, SAGPY (Arrowhead (Pygmaea)); assay type: in vivo; conditions: preemergence, flooded paddy, rated 3-4 weeks after treatment
[5] = system: Monochoria vaginalis, Presl.; assay: Preemergence weed control under flooded paddy conditions, MOOVA (Monochoria); assay type: in vivo; conditions: preemergence, flooded paddy, rated 3-4 weeks after treatment
[6] = system: Echinochloa oryzoides (Ard.) Fritsch.; assay: Preemergence weed control under flooded paddy conditions, ECHORC (Watergrass (Calif.)); assay type: in vivo; conditions: preemergence, flooded paddy, rated 3-4 weeks after treatment
Also: meaning of each grade not given here.

SMILES	herbicidal effect rating, CYPSE ([1]; Rate 0.0620 kg/ha)	herbicidal effect rating, CYPSE ([1]; Rate 0.1250 kg/ha)	herbicidal effect rating, CYPSE ([1]; Rate 0.2500 kg/ha)	herbicidal effect rating ORYSAT ([2]; Rate 0.0320 kg/ha)	herbicidal effect rating ORYSAT ([2]; Rate 0.0620 kg/ha)	herbicidal effect rating ORYSAT ([2]; Rate 0.1250 kg/ha)	herbicidal effect rating ORYSAT ([2]; Rate 0.2500 kg/ha)	herbicidal effect rating, CYPIR ([3]; Rate 0.0320 kg/ha)	herbicidal effect rating, CYPIR ([3]; Rate 0.0620 kg/ha)	herbicidal effect rating, CYPIR ([3]; Rate 0.1250 kg/ha)	herbicidal effect rating, CYPIR ([3]; Rate 0.2500 kg/ha)	herbicidal effect rating, SAGPY ([4]; Rate 0.0320 kg/ha)	herbicidal effect rating, SAGPY ([4]; Rate 0.0620 kg/ha)	herbicidal effect rating, SAGPY ([4]; Rate 0.1250 kg/ha)	herbicidal effect rating, SAGPY ([4]; Rate 0.2500 kg/ha)	herbicidal effect rating, MOOVA ([5]; Rate 0.0320 kg/ha)	herbicidal effect rating, MOOVA ([5]; Rate 0.0620 kg/ha)	herbicidal effect rating, MOOVA ([5]; Rate 0.1250 kg/ha)	herbicidal effect rating, MOOVA ([5]; Rate 0.2500 kg/ha)	herbicidal effect rating, ECHORC ([6]; Rate 0.0320 kg/ha)	also measured
Cn1c(C(F)(F)F)cc(=O)n(-c2ccc3snc(-c4ccccc4OCC(N)=O)c3c2)c1=O [Example 548, Acetamide, 2-{o-{5-[3,6-dihydro-3-methyl-2,6-dioxo-4-(trifluoromethyl)-1(2H)-pyrimidinyl]-1,2-benzisothiazol-3-yl}phenoxy}-]	9.0	9.0	9.0	3.0	2.0	4.0	6.0	2.0	6.0	8.0	9.0	0.0	0.0	2.0	4.0	8.0	9.0	9.0	9.0	2.9	herbicidal effect rating, CYPSE ([1]; Rate 0.5000 kg/ha): 9.0; herbicidal effect rating ORYSAT ([2]; Rate 0.5000 kg/ha): 4.0; herbicidal effect rating, CYPIR ([3]; Rate 0.5000 kg/ha): 0.0; herbicidal effect rating, SAGPY ([4]; Rate 0.5000 kg/ha): 0.0; herbicidal effect rating, MOOVA ([5]; Rate 0.5000 kg/ha): 9.0; herbicidal effect rating, ECHORC ([6]; Rate 0.0620 kg/ha): 3.7; herbicidal effect rating, ECHORC ([6]; Rate 0.1250 kg/ha): 4.9; herbicidal effect rating, ECHORC ([6]; Rate 0.2500 kg/ha): 9.0; herbicidal effect rating, ECHORC ([6]; Rate 0.5000 kg/ha): 6.0
Cc1ccc(OCC(=O)OCCC2OCC(C)(C)CO2)c(-c2nsc3ccc(-n4c(=O)cc(C(F)(F)F)n(C)c4=O)cc23)c1 [Example 533, Acetic acid, {{2-{5-[3,6-dihydro-3-methyl-2,6-dioxo-4-(trifluoromethyl)-1(2H)-pyrimidinyl]-1,2-benzisothiazol-3-yl}-p-tolyl}oxy}-, 2-(5,5-dimethyl-m-dioxan-2-yl)ethyl ester]	0.0	3.0	9.0	3.0	4.5	5.0	8.0	2.0	3.0	4.0	9.0	0.0	0.0	0.0	4.0	9.0	9.0	9.0	9.0	7.5	herbicidal effect rating, CYPSE ([1]; Rate 0.0320 kg/ha): 0.0; herbicidal effect rating, ECHORC ([6]; Rate 0.0620 kg/ha): 9.0; herbicidal effect rating, ECHORC ([6]; Rate 0.1250 kg/ha): 9.0; herbicidal effect rating, ECHORC ([6]; Rate 0.2500 kg/ha): 9.0
